Bridge positions count the residues as written; N and C are the ends. Square brackets hold non-standard residues; d marks the D form. Peptide text beside a SMILES is read from it. Nspe = C[C@H](NCC(=O)O)c1ccccc1; Nlys = NCCCCNCC(=O)O
Columns and labels:
[1] = test system: CJW7753 cells in wide trenches; test: Wide-trench microfluidics, growth inhibition of dense populations; assay type: cell-based, Escherichia coli; conditions: 2X MIC in feeding channel, 37°C, M9gluCAAT with 0.08% Pluronic
Description: The design of the wide-trench microfluidics was adapted from the one reported by ([Lambert & Kussell, 2014]). As reported before ([Lin & Jacobs-Wagner, 2022]), the master mold was manufactured in the clean room of the School of Engineering and Applied Science at Yale University. UV photolithography (EVG 620 Mask Aligner) was applied on Si wafers with SU-8 photoresist to generate two layers of positive patterns. The lower layer contained the bacterial culture chambers (wide trenches) while the upper layer contained the large trench for the flowing culture medium. The large feeding region features a ~200 μm width and ~30 μm height. The wide trenches have a width of 7 μm, a depth of ~34–38 μm, and a height of 1.29 μm.
A solution of 9:1 polydimethylsiloxane (PDMS) and curing agent was mixed, degassed to remove air bubbles, poured onto the silicon wafer, and cured at 64.5°C for > 3 h. Note that the 9:1 PDMS:curing agent ratio was used instead of the standard 10:1 to reduce the hydrophobicity of the PDMS and mitigate hydrophobic interactions with AMPs. Once hardened, PDMS chips were cut out from the wafer, and a 1.2 mm biopsy punch was used to create inlet and outlet holes. The current chip design features two independent channels per chip. To allow for a higher temperature during PDMS-glass bonding, the glass bottom part of the dish was used during the following steps (without the plastic support glued to it). […]
To analyse wide-trench time-lapse images, drift correction was first performed using OmniSegger, followed by a custom Python script (drift_correction_wide_trenches.py) to correct for the slow residual drift that remained after the first correction step. The resulting drift-corrected timelapse data were analysed with the OmniSegger pipeline using the ribosome-fluorescence wide-trench Omnipose model described above, allowing cell segmentation and cell linking to be performed in the same general manner as for the PDMS-microwell experiments. […]

[2] = test system: E. coli ATCC 25922; assay type: cell-based, Escherichia coli; conditions: E. coli ATCC 25922, M9gluCAAT, 37°C, 20 h; mode across four biological replicates
Procedure: Strain ATCC 25922GFP (ATCC, Virginia, USA), which carries a GFP-expressing plasmid, was selected for biofilm experiments. The strain’s ability to form biofilms was first verified at 37°C using Congo Red staining on agar plate containing M9gluCAAT. Congo Red dye binds curli, a major component of the biofilm extracellular matrix. Strain ATCC 25922 (lacking the GFP-expressing plasmid) was used for MIC determination (to avoid interference from the presence of ampicillin required to maintain the plasmid) following the standard growth protocol described above.
To determine the minimal inhibitory concentration (MIC) of the selected AMPs against either MG1655 or ATCC 25922 E. coli strains, exponentially growing cells were diluted in fresh medium to an OD = 10^−6 (~500 cells/mL) and mixed 50:50 with titrated AMP concentrations (which were chosen to be over a range that included the MIC) in a 96-well plate (flat bottom with low evaporation lid, 3595, Corning, Arizona, USA). A final OD of 5 × 10^−7 corresponds to ~250 cells/mL. OD curves were sampled every 5 min for a total of 48 h using a microplate reader (BioTek Synergy 2, Agilent Technologies Inc., California, USA). Raw data were exported as a text file and analysed using a custom-written Python script (microplate_reader_analysis.py). To measure maximum growth rates, the log(OD) was fitted using a linear regression over a 12-point moving window (60 min), which provides the instantaneous growth rate (log(OD)/h), from which the global maximum was computed. The MIC was defined as the minimum AMP concentration for which the maximum growth rate was < 0.2 log(OD)/h within the first 20 h of incubation. Each MIC experiment was performed independently at least three times (with at least two technical replicates each), and the mode across all replicates was taken as the final MIC; in the rare cases of a tie, an additional replicate was performed, which was sufficient to resolve it.

Row | SMILES | Growth inhibition of dense cell population in wide trenches [1] | MIC (mode MIC) [2] [µM]
1 | CC[C@@H](C)[C@@H](NC(=O)[C@@H](C)NC(=O)[C@@H](CCCNC(=N)N)NC(=O)[C@@H](Cc1c[nH]c2ccccc12)NC(=O)[C@@H](CCC(N)=O)NC(=O)[C@H](N)C(C)C)C(=O)N[C@H](CCCNC(=N)N)C(=O)N[C@@H](C(=O)N[C@H](CCCNC(=N)N)C(=O)N[C@@H](C(=O)N[C@@H](C(=O)N[C@H](CCCNC(=N)N)C(N)=O)[C@H](C)CC)C(C)C)C(C)C [DJK-5] (H-[dV][dQ][dW][dR][dA][dI][dR][dV][dR][dV][dI][dR]-NH2; N-terminus and C-terminus assumed) | able to inhibit cell growth throughout the entire wide trenches | –
2 | C[C@@H](c1ccccc1)N(CC(N)=O)C(=O)CN(C(=O)CN(CCCCN)C(=O)CN(C(=O)CN(C(=O)CN(CCCCN)C(=O)CN(C(=O)CN(C(=O)CN(CCCCN)C(=O)CN(C(=O)CN(C(=O)CNCCCCN)[C@@H](C)c1ccccc1)[C@@H](C)c1ccccc1)[C@@H](C)c1ccccc1)[C@@H](C)c1ccccc1)[C@@H](C)c1ccccc1)[C@@H](C)c1ccccc1)[C@@H](C)c1ccccc1 [TM1] (H-[Nlys][Nspe][Nspe][Nlys][Nspe][Nspe][Nlys][Nspe][Nspe][Nlys][Nspe][Nspe]-NH2) | localized growth inhibition | –
3 | CC[C@H](C)[C@@H]1NC(=O)CNC(=O)[C@H](CCCNC(=N)N)NC(=O)[C@H](Cc2ccc(O)cc2)NC(=O)[C@@H]2CSSC[C@H](NC1=O)C(=O)N[C@@H](Cc1ccc(O)cc1)C(=O)N[C@@H](CCCNC(=N)N)C(=O)N[C@@H](CCCNC(=N)N)C(=O)N[C@H](C(=O)N[C@@H](CCCNC(=N)N)C(N)=O)CSSC[C@H](NC(=O)[C@H](Cc1c[nH]c3ccccc13)NC(=O)[C@@H](N)CCCCN)C(=O)N[C@@H](Cc1ccccc1)C(=O)N[C@@H](CCCNC(=N)N)C(=O)N[C@@H](C(C)C)C(=O)N2 [Tac1, tachyplesin-1] (H-KWCFRVCYRGICYRRCR-NH2; disulfide 3-16, 7-12 (inferred); N-terminus assumed) | primarily inhibited the growth of cells near the top of the trenches | 1.2
